The record followed here is US20160166705A1, “THERAPEUTICAL USE OF TERNARY COMPLEXES OF VALPROIC ACID” (UNIVERSITE PARIS-SUD XI, priority 2009, published 2016).

The test system of data set [1] is leukocyte migration. Kind of data set: Anti-inflammatory tail section assay, leukocyte migration in zebrafish. Type of data set: in vivo. The procedure:
(§1) All chemicals were firstly dissolved in dimethylsulfoxide, DMSO 99.5% (GC) Sigma-Aldrich), and then diluted in embryo medium E3 (5 mM NaCl, 0.17 mM KCl, 0.33 mM CaCl2, 0.33 mM Mg2SO4, 10-5% methylene blue).
(§2) During the course of the experiments, transgenic zebrafish of the fli-1: EGFP lines were used. Once the fertilized eggs were collected, they were reared in embryo medium E3 in an incubator at 28° C. The 20 hours post fertilization (hpf), 1-phenyl-2-thiourea (PTU) (Sigma-10×(0.03%)) was added to larvae's medium in 1:9 proportion to prevent the formation of melanophores in zebrafish embryos and larvae [Karlsson, J., von Hofsten, J. and Olsson, P. Mar. Biotechnol., 2001, 3, 522-527].
The experimental corroboration of anti-inflammatory activity was done by using a new in vivo test development using zebrafish biological material [Siverio-Mota, D., de Witte, P. et al, 2009, in preparation]. The principal aspects of this new biological assay are the following. First, ten larvae from 4 dpf were used per treated and control groups. In each case, the MTC was used as the assay concentration and indomethacin (Merck Sharp & Dohme) at 30 μM was used as control group. These larvae were placed in wells of a 24 wells tissue culture plate at assay's concentrations in ImL final volume. After one hour, the larvae were anesthetized by immersion in E3 containing tricaine (Westerfield, M., The Zebrafish Book: A Guide for the Laboratory Use of Zebrafish (Brachydanio rerio). 1995, Eugene, Oreg., University of Oregon Press), the complete section of the tail was performed with a sterile scalpel. Once tails were cut, zebrafish were placed again in a 24 wells tissue culture plate at assay's concentrations together with 10 μg/mL solution of lipopolysaccharide to stimulate the leukocyte migration. The temperature of incubation was kept from 20 to 22° C. […]
Anti-inflammatory activity was evaluated following the steps described above. Leukocyte migration to damaged zone (end tail) was observed and evaluated as the parameter determining the anti-inflammatory activity of the tested compounds. […]

Data set [2] in a line: Rotating rod test (Rotorod Toxicity), mice. Type of data set: in vivo. Conditions: for Rotorod Toxicity: challenge 0.5 and 4 h. The text has this:
(§3) This qualitative test was used to evaluate ‘neurotoxicity’, central nervous system stimulation or depression. Depression of CNS activity is a common feature of all antiepileptic drugs. Mice or rats are placed on a 1 inch diameter knurled plastic rod rotating at 6 revolutions per min. Normal mice and rats can remain on a rod rotating at this speed indefinitely. […] It may be attributed to CNS depression due to sedative and/or hypnotic activities, or a state of eminent death, due to medullary paralysis at high doses, a common unwanted side effect caused by high doses of all anticonvulsant drugs.

Data set [3] relates to Maximal Electroshock (MES) induced seizures. Kind of data set: Maximal Electroshock Seizure (MES) test. Type of data set: in vivo. Particulars: mice ip 57, 188, or 570 µmg/kg; challenge 0.5 and 4 h after treatment. The procedure: Anticonvulsant activities were determined by the National Institutes of Health-National Institute of Neurological Disorders and Stroke-Antiepileptic Drug Development program for the detection and evaluation of compounds as anticonvulsants agents. Compounds were suspended in polyethylene glycol prior to injection into male Carworth Farms #1 mice. In Phase I studies, identification of anti-convulsant activity, test compounds were given intraperitonealy ([…]) of body mass, and protection against Maximal Electroshock (MES), Minimal Electroshock (MCS) and/or Metrazol (scMET) induced seizures was determined 30 min and 4 h later. All statistics were obtained by Probit analysis.
Maximal electroshock seizure (MES) were elicited with a 60 cycles alternating current of 50 mA, five to seven times that necessary to elicit minimal electroshock seizures, delivered for 0.2 s via corneal electrodes. A drop of 0.9% saline solution was instilled into both eyes prior to application of electrodes in order to prevent death. Abolition of the hind limb tonic extension component of seizure is defined as anticonvulsant activity.

The subject of data set [4] is Metrazol (scMET) induced seizures. Kind of data set: Subcutaneous Metrazol seizure threshold test (scMET), mice. Type of data set: in vivo. On the procedure:
Anticonvulsant activities were determined by the National Institutes of Health-National Institute of Neurological Disorders and Stroke-Antiepileptic Drug Development program for the detection and evaluation of compounds as anticonvulsants agents. Compounds were suspended in polyethylene glycol prior to injection into male Carworth Farms #1 mice. […] All statistics were obtained by Probit analysis.
A dose of Pentylenetetrazol, a potent CNS stimulant, which produces seizures in greater than 97% of treated mice, at 85 mg/kg of body mass, was administered s.c. as a 0.5% saline solution at the posterior neck midline. […] Failure to observe even a threshold seizure, a single episode of clonic spasms of at least five second duration, is defined as anticonvulsant activity.

A short description of data set [5]: Rotating rod test (Rotorod Toxicity), rats. It is filed as in vivo. Conditions: rats oral 94 μmol/kg; challenge 0.25, 0.5, 1, 2, and 4 h.
From the text: as §3

The test system of data set [6] is MET-induced seizures. Kind of data set: Metrazol seizure test, oral treatment of rats. It is filed as in vivo. Particulars: rats oral 94 μmol/kg.
The subject of data set [7] is Minimal Clonic Seizure. Kind of data set: Minimal Electroshock / Psychomotor (Minimal Clonic) Seizure test (MCS). Particulars: for anticonvulsant activity against MCS, complex versus individual constituents: mouse, in vivo. Type of data set: in vivo, mice. On the procedure: Anticonvulsant activities were determined by the National Institutes of Health-National Institute of Neurological Disorders and Stroke-Antiepileptic Drug Development program for the detection and evaluation of compounds as anticonvulsants agents. Compounds were suspended in polyethylene glycol prior to injection into male Carworth Farms #1 mice. In Phase I studies, identification of anti-convulsant activity, test compounds were given intraperitonealy (ip) at 57, 188 and 570 milligrams-per-kilogram (mg/kg) of body mass, and protection against Maximal Electroshock (MES), Minimal Electroshock (MCS) and/or Metrazol (scMET) induced seizures was determined 30 min and 4 h later. All statistics were obtained by Probit analysis.
This test was designed to detect compounds that are missed with the MES tests which employ a larger current of 50 mA. The delivery of a less intense electric stimulation which produces less intense stimulation of the CNS (Central Nervous System) and brain inflammation than the MES test, via corneal electrodes of 6 Hz, 32 mA or slightly higher current, for 3 s, is used to produce psychomotor seizures, following instillation of a drop of 0.9% saline solution prior to this application of electric current. Abolition of the visual stereotypic behavior characterized as minimal automatist behaviors, similar to the aura that human patients experience during psychomotor seizure, is defined as antipsychomotor seizure activity.

Data set [8] deals with zebrafish larvae. Kind of data set: Toxicological evaluation (Maximum Tolerated Concentration) in zebrafish larvae. Type of data set: in vivo. Conditions: 100 µM; 24 h exposure of larvae. On the procedure: as §1, §2
The Maximum Tolerated Concentration (MTC) was defined as the maximum concentration at which no death or signs of toxicity (in the circulatory system) were observed.
The MTC in the fish water was initially determined by incubating zebrafish larvae resulting from 4 days post fertilization (dpf) with compounds assayed in E3. During 24 hours, 5 larvae of zebrafish per well were placed in a tissue culture in 24 well plates using tested compounds at 10 μM, 30 μM and 100 μM concentration in the medium. Following the 24 h period of incubation, the characteristics of the zebrafish larvae were examined. The MTC were determined in treated groups at 5 dpf after 24 h exposure to the tested drugs.

Turning to `CCCC(CCC)C(=O)[O-].CCCC(CCC)C(=O)[O-].CCCC(CCC)C(=O)[O-].CCCC(CCC)C(=O)[O-].[Cu+2].[Cu+2]` [Compound 3, Tetrakis-μ-2-propylpentanoato dicopper(II)], the “percentage of relative leukocyte's migration” value in data set [1] (zebrafish larvae, tail section + lipopolysaccharide, tested at MTC, 7 h) is on record as 60%.
`CCCC(CCC)C(=O)[O-].CCCC(CCC)C(=O)[O-].[Cu+2].c1cnc2c(c1)ccc1cccnc12` [Compound 4, bis-(2-propylpentanoato)(1,10-phenanthroline)copper(II)]: the “deaths in Rotorod test” value in data set [2] (mice 188 μmol/kg, 4 h challenge time) is listed as “three deaths”. Also, the “Rotorod Toxicity” value was “observed” in data set [2] (mice 188 μmol/kg, impaired ability to grasp the rotating rod); “impaired ability to grasp the rotating rod, sedation, and deaths without seizure” in data set [2] (mice 570 μmol/kg); “not observed” in data set [2] (mice ip 5.7, 19, and 57 μmol/kg); “failed to evidence Rotorod Toxicity” in data set [5]. Moreover, the “anticonvulsant activity, MES challenge” value in data set [3] is “inactive”. Besides, in data set [4] (188 μmol/kg at 4 h challenge and 570 μmol/kg at 0.5 challenge time), the “deaths in scMET test” value is on record as “deaths occurring without seizure”. The “anticonvulsant activity, scMET seizure model” value in data set [4] (mice 5.7, 19, 57, 188, and 570 μmol/kg, challenge 0.5 and 4 h) was “inactive”. In data set [6], the “adverse effects in MET test” value is reported as “continuous seizure activity, death following continuous seizure activity, or tonic seizure extension”. The “protection against MET-induced seizures” value in data set [6] (challenge 0.25, 0.5, 1, 2, and 4 h) was “not protective”. The “TPE (Time to Peak Effect)” value in data set [7] (18 μmol/kg) is on record as 2 h. Further, the “activity against Minimal Clonic seizure” value in data set [7] (18 mol/kg, challenge times 1, 2, and 4 h) is “activity was found”; in data set [7] (mice 188 μmol/kg, challenge 0.25, 0.5, 1, and 2 h) it was “active”. The “ED50, Minimal Clonic seizure” value in data set [7] (mice) is 8 µmol/kg. The “toxicity observed in MCS test” value is listed as “inability to grasp the rotating rod” in data set [7] (mice 188 μmol/kg, 0.25, 0.5, 1, and 2 h); “Minimal motor impairment” in data set [7] (mice ip 94 μmol/kg, most mice). The “deaths in MCS test” value in data set [7] (mice 188 μmol/kg, 2 h challenge time) is recorded as “three deaths”; in data set [7] (mice 188 μmol/kg, before the 4 h challenge), “all mice died”; in data set [7] (mice ip 94 μmol/kg, after the 2 h challenge), “two deaths”; in data set [7] (mice ip 94 μmol/kg, prior to challenge at 4 h), “All treated mice died”. Further, in data set [7] (mice 2.25, 4.5, 9, 18, and 36 μmol/kg, 2 h), the “toxicity in MCS test” value is reported as “absence of toxicity”. Besides, the “protection against the Minimal Clonic seizure” value in data set [7] (mice 2.25, 4.5, 9, 18, and 36 μmol/kg, challenge at 2 h) is on record as “dose-related increase in protection”. In addition, the “protection against Minimal Clonic Seizure” value in data set [7] (mice ip 94 μmol/kg, challenge 0.25, 0.5, 1, and 2 h) is “protected”. Besides, the “anticonvulsant activity against MCS, complex versus individual constituents” value in data set [7] is recorded as “μmolar level”.
With `CCCC(CCC)C(=O)[O-].CCCC(CCC)C(=O)[O-].[Mg+2]` [Compound 7], the toxicity in zebrafish entry in data set [8] was “did not show any toxicity”. Besides, the “anti-inflammatory result, ranking in words” value in data set [1] (zebrafish) is “best result”.
In the case of `[Cl][Cu][Cl]` [copper chloride, reference compound], the “anticonvulsant activity against MCS, complex versus individual constituents” value in data set [7] was “no anticonvulsant of activity”.
Consider `COc1ccc2c(c1)c(CC(=O)O)c(C)n2C(=O)c1ccc(Cl)cc1` [indomethacin, reference compound], for which the “percentage of relative leukocyte's migration” value in data set [1] (positive control, indomethacin at 30 μM) was 20%.
Turning to `c1cnc2c(c1)ccc1cccnc12` [phenanthroline, 1,10-phenanthroline, reference compound], the “anticonvulsant activity against MCS, complex versus individual constituents” value in data set [7] was “no anticonvulsant of activity”.
In data set [7] (Mus musculus, same paradigm, sodium valproate), `CCCC(CCC)C(=O)O` [sodium valproate, reference compound] displayed an ED50 of 2800 µmol/kg.
Turning to `CCCC(CCC)C(=O)O` [valproic acid, 2-propylpentanoic acid], the “anticonvulsant activity against MCS, complex versus individual constituents” value in data set [7] is reported as “much less potency”.
With copper acetate [reference compound], the “anticonvulsant activity against MCS, complex versus individual constituents” value in data set [7] was “no anticonvulsant of activity”.
